Where “and” joins values, the source holds several entries; their conditions need not be identical. Equal entries are not always repeated.
Experiments:
[1] = test system: Melon aphids (Aphis gossypi); assay: melon aphids on dipped squash plants; type: in vivo; settings: 200 ppm, six days
Experimental: Young squash plants were dipped for 30 seconds in aqueous solutions containing 200, 100, and 50 ppm. of 2.6-dimethyl-9-(3,4-methylenedioxyphenyl)-2,6-nonadiene. Three plants were treated at each concentration and three plants were used as controls. After the plants had dried, ten adult aphids (Aphis gossypi) were placed on each plant and allowed to feed. The plants were maintained under laboratory conditions. Twenty-four hours after they were placed on the plants, all adults were removed, leaving young nymphs. Six days after treatment, the total number of aphids on each plant was determined.

[2] = test system: Mexican bean beetle larvae; assay: spray of caged flats of bean plants with Mexican bean beetle larvae; type: in vivo
Experimental: Six-foot by 12-foot caged flats were planted with Bountiful variety bean plants in two 12-foot rows. Into each cage were introduced 100 Mexican bean beetle larvae. Each cage was then sprayed with 500 ml. of a solution prepared by diluting a 48 percent emulsifiable concentrate of 2,6-dimethyl-9-(3,4-methylenedioxyphenyl)-2,6-nonadiene to the desired concentration. Two flats were treated at each concentration and two were used as controls.

[3] = test system: cockroach nymphs (Blattella germanica); assay: German cockroach nymphs in treated glass jars; type: in vivo; settings: for reproduction: four months
Experimental: Test jars were prepared by adding 2 ml. of an acetone solution containing 10 mg., 20 mg., or 100 mg. of 2,6-dimethyl-9-(3,4-methylenedioxyphenyl)-2,6-nonadiene to 1 gallon glass jars and allowing the acetone to evaporate. The jars were equipped with watering bottles, food, and paper towels. There were two jars for each rate of test compound and two jars for nontreated controls. To each jar were added 20 40-day-old cockroach nymphs (Blattella germanica). […] Thus, the nonadiene at 100 mg. had prevented reproduction for 4 months.

[4] = test system: Southern corn rootworm; assay: Southern corn rootworm larvae in treated petri dishes, adult emergence; type: in vivo, Diabrotica undecimpunctata; settings: 21 days
Experimental: Petri dishes containing 150 g. of sand were autoclaved for one hour. Corn seed which had been soaked overnight was rinsed first with a solution of 10 percent alcohol, 20 percent chlorox, and 70 percent water for 15 minutes and then with clear water. Three to four seeds were placed in each dish. The dishes were then moistened with 15 ml. of a 100 ppm. solution of a fungicide. After 24 hours, ten Southern corn rootworm eggs (Diabrotica undecimpunctata) were placed in each dish. The dishes were maintained in an incubator in the dark for 14 days. New petri dishes were prepared as described except that the eggs were not added and 2,6-diemthyl-9-(3,4-methylenedioxyphenyl)-2,6-nonadiene was added at a rate of 100 ppm. or 10 ppm. Ten dishes at each treatment rate and ten controls were used. Three larvae from the incubated dishes were placed in each of the treated dishes and each control dish. […] There were a total of 15 adults in the ten dishes treated at 10 ppm. and a total of 19 adults in the ten control dishes.

[5] = test system: Tenebrio molitor pupae; assay: topical application to Tenebrio molitor pupae, maturation inhibition; type: in vivo; settings: rating scale 0-4
In short: (§1)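 Compounds applied topically, 1 μL acetone solution at 10%, 1% or 0.5%, to ten specimens per insect per concentration, alongside acetone and untreated controls; scored after about 8–10 days. Juvenile/adult characteristics rated 0–3 (Tenebrio 0–4), ≥2 meaning unable to reproduce; unreported specimens died during metamorphosis.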

[6] = test system: aphid nymphs; assay: application to aphid nymphs in acetone; type: in vivo, Aphis gossypi; settings: 3 days
Experimental: In another test, female aphids were placed on young squash plants and allowed to produce young for 24 hours. After 24 hours, all adult aphids were removed from the plants and the young were maintained on the plants for an additional 48-hour period. This gave an aphid nymph population having an age of 48 to 72 hours. To each nymph was applied […]. of a 10 percent, 1 percent, or 0.5 percent solution of 2.6- dimethyl-9-(3,4-methylenedioxyphenyl)-2,6-nonadiene or 7,8-epoxy-4-ethyl-8-methyl-1-(3,4-methylenedioxyphenyl)-3-decene in acetone and the aphid nymphs were transferred to new squash plants and observed for possible effects. Ten nymphs were treated with each concentration of each compound and 10 were treated with acetone alone while 10 were not treated to serve as controls. […] There was only one dead nymph treated with acetone alone and one dead nymph in the nontreated controls.

[7] = test system: Mexican bean beetle larvae; assay: soil drench of bean plants with Mexican bean beetle larvae; type: in vivo; settings: scale 0-3
Experimental: Bean plants of the Bountiful variety were placed in soil and allowed to grow with 10 Mexican bean beetle larvae on each cluster. To the soil around each plant was added 200 ml. of a solution containing 2,6-dimethyl-9-(3,4-methylenedioxyphenyl)-2,6-nonadiene. The soil was then covered with aluminum foil to prevent the larvae from coming in contact with the compound. Three different concentrations of compound were applied. These were prepared from a 48 percent emulsifiable concentrate by diluting 10 ml., 4 ml., and 2 ml. of the concentrate to a volume of 200 ml. with water. A control using 200 ml. of just water and another using no drench were also run. The results are tabulated below using the same rating system as described earlier for the primary screening test agains Mexican bean beetle.

[8] = test system: wax moth; assay: topical application to wax moth, fifth larval stage, maturation inhibition; type: in vivo
In short: as §1

CC(C)=CCCC(C)=CCCc1ccc2c(c1)OCO2 [2,6-dimethyl-9-(3,4-methylenedioxyphenyl)-2,6-nonadiene]
number of aphids per plant, Total [1]: 15 and 13 and 22 | % Control ([2]; 0.1 lbs./acre): 13% | % Control ([2]; 0.2 lbs./acre): 71.5% | % Control ([2]; 0.4 lbs./acre): 75.5% | % Control ([2]; 0.8 lbs./acre): 98.5% | state of adults and nymphs ([3]; 10 mg, about 2 1/2 months): normal adults and newly hatched nymphs | state of adults and nymphs ([3]; 20 mg, about 2 1/2 months): normal adults and newly hatched nymphs | duration of prevented reproduction ([3]; 100 mg): 4 months | newly hatched nymphs ([3]; 100 mg, about 2 1/2 months): did not contain newly hatched nymphs | wings of adults ([3]; 100 mg, about 2 1/2 months): all adults in the jars had deformed wings | reproduction ([3]; 100 mg): no reproduction | reproduction ([3]; lower rate jars (10 and 20 mg)): large numbers of newly hatched nymphs | total adults in the ten dishes ([4]; 10 ppm, 19 adults in ten control dishes): 15 adults | adults emerged ([4]; 100 ppm): no adults had emerged | number of specimens in rating 4 ([5]; 0.5%): 9 specimens | number of specimens in rating 4 ([5]; 1%): 10 specimens | number of specimens in rating 4 ([5]; 10%): 10 specimens | dead nymphs ([6]; 0.5 percent): nine of the ten | dead nymphs ([6]; 1 percent): all of the nymphs | dead nymphs ([6]; 10 percent): all of the nymphs | number in rating 0 ([7]; 2 ml. concentrate/200 ml.): 8 | number in rating 3 ([7]; 2 ml. concentrate/200 ml.): 2 | number in rating 0 ([7]; 4 ml. concentrate/200 ml.): 2 | number in rating 3 ([7]; 4 ml. concentrate/200 ml.): 8 | number in rating 0 ([7]; 10 ml. concentrate/200 ml.): 1 | number in rating 3 ([7]; 10 ml. concentrate/200 ml.): 9 | number of specimens in rating 0 ([8]; 0.5%, rating scale 0-3): 8 specimens | number of specimens in rating 1 ([8]; 0.5%, rating scale 0-3): 1 specimens | number of specimens in rating 0 ([8]; 1%, rating scale 0-3): 9 specimens | number of specimens in rating 3 ([8]; 1%, rating scale 0-3): 1 specimens | number of specimens in rating 0 ([8]; 10% in acetone, 1 microliter topical, rating scale 0 (no effect) to 3 (maximum)): 7 specimens | number of specimens in rating 1 ([8]; 10%, rating scale 0-3): 2 specimens | number of specimens in rating 3 ([8]; 10%, rating scale 0-3): 1 specimens
